System: patients with chronic GVHD
Assay: Example 2: phase II randomized study of belumosudil (KD025-213) in cGVHD, efficacy and safety;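 note: allogeneic HCT recipients aged ≥12 years with persistent cGVHD after two to five earlier systemic treatment lines, responses judged by site investigators, 12-month analysis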
Details: for Cough / Diarrhea / Dyspnea / Fatigue / Headache / Muscle spasms / Nausea / Peripheral edema / Vomiting: All grades; for Hyperglycemia / Hypertension / Pneumonia: Grade ≥3; for ALT increased / AST increased / Bilirubin conjugated increased / Blood alkaline phosphatase increased / GGT increased / Hypoalbuminemia / LFT increased / Transaminases increased: Liver-related AE; for Clinically significant improvement from baseline (LSS), Overall: decrease ≥7 points in LSS score
[1] = 200 mg BID (n = 66), of subjects with organ involved
[2] = 200 mg QD (n = 66), of subjects with organ involved
[3] = Total (N = 132), of subjects with organ involved
[4] = Total, N=132, mITT, listed as Belumosudil

Description: Concomitant treatment with supportive care therapies for chronic GVHD was permitted. […] Initiation of new systemic chronic GVHD therapy while on study was not permitted.
Eligible subjects were allogeneic hematopoietic cell transplant recipients aged ≥12 years with persistent cGVHD manifestations after receiving 2 to 5 prior systemic lines of therapy. Subjects were required to be receiving stable corticosteroid therapy for 2 weeks prior to screening and to have a Karnofsky or Lansky Performance Status Scale score≥60. Certain concurrent immunosuppressive medications were allowed because drug-drug interactions were not anticipated.
Randomization was stratified (1:1) by cGVHD severity and prior exposure to ibrutinib.
All responses were assessed by the study site investigators. Secondary end points included duration of response (DOR), time to response, changes in LSS summary score, failure-free survival (FFS), corticosteroid dose reductions, and overall survival (OS). DOR was measured from the time of initial PR or CR until documented progression from best response of cGVHD, time from initial response to start of additional systemic cGVHD therapy, or death. The 7-day LSS summary score was calculated based on the developer recommendations and was compared with the score from baseline; an improvement ≥7 points was considered clinically meaningful. […] Relative dose intensity (RDI) was used as a surrogate measure of drug tolerability and was defined as actual dose intensity/planned dose intensity, where dose intensity was defined as the cumulative dose over the duration of exposure (mg/d). Actual dose intensity captured the sum of actual doses received over the duration of exposure and incorporated dose reductions and/or interruptions.
The Hochberg procedure was used for multiplicity adjustment for the primary end point of best ORR. […] CI was calculated using the Clopper-Pearson interval (exact) method.

## CC(C)NC(=O)COc1cccc(-c2nc(Nc3ccc4[nH]ncc4c3)c3ccccc3n2)c1 [belumosudil, 2-{3-[4-(1H-indazol-5-ylamino)-2-quinazolinyl]phenoxy}-N-(propan-2-yl) acetamide]
[1]
  CR, Eyes: (12) %
  CR, Joints and fascia: (20) %
  CR, Lower GI: (57) %
  ORR, Esophagus: (42) %
  ORR, Lower GI: (71) %
  ORR, Lungs: (22) %
  ORR, Mouth: (57) %
  ORR, Skin: (42) %
  ORR, Upper GI: (40) %
  PR, Joints and fascia: (47) %
  PR, Lower GI: (14) %
[2]
  CR, Joints and fascia: (20) %
  CR, Liver: (22) %
  CR, Lungs: (17) %
  CR, Upper GI: (54) %
  ORR, Eyes: (33) %
  ORR, Joints and fascia: (75) %
  ORR, Liver: (33) %
  ORR, Lower GI: (67) %
  ORR, Lungs: (29) %
  ORR, Mouth: (53) %
  ORR, Skin: (33) %
  ORR, Upper GI: (62) %
  PR, Skin: (18) %
200 mg daily
  Clinically significant improvement from baseline (LSS), Nonresponder: (29) %
200 mg daily (n = 66)
  Any AE: (99) %
  Deaths: (12) %
  Drug-related AEs: (74) %
  Drug-related SAEs: (8) %
  Grade ≥3 AEs: (56) %
  Liver-related AEs: (18) %
  SAEs: (41) %
  Cough: (30) %
  Diarrhea: (35) %
  Dyspnea: (32) %
  Fatigue: (46) %
  Headache: (20) %
  Muscle spasms: (20) %
  Nausea: (35) %
  Peripheral edema: (26) %
  Vomiting: (27) %
  Hyperglycemia: (5) %
  Hypertension: (6) %
  Pneumonia: (9) %
  ALT increased: (6) %
  AST increased: (8) %
  Bilirubin conjugated increased: (2) %
  Blood alkaline phosphatase increased: (6) %
  GGT increased: (9) %
  Hypoalbuminemia: (3) %
  LFT increased: (2) %
  Transaminases increased: (2) %
200 mg daily, n=66, mITT
  CS discontinuation: (20) %
  FFS at 6 mo: 73%
  ORR (best, any time): (74) %
  ORR for responses occurring within 6 mo of treatment: (71) %
  ORR for responses occurring within 12 mo of treatment: (74) %
  PR, within 6 mo of treatment: (68) %
  PR, within 12 mo of treatment: (68) %
  Clinically significant improvement from baseline (LSS), Overall: 59%
200 mg twice daily
  Clinically significant improvement from baseline (LSS), Nonresponder: (33) %
  Clinically significant improvement from baseline (LSS), Responder: (71) %
200 mg twice daily (n = 66)
  Any AE: (100) %
  Deaths: (9) %
  Drug-related AEs: (61) %
  Drug-related SAEs: (3) %
  Grade ≥3 AEs: (52) %
  Liver-related AEs: (29) %
  SAEs: (35) %
  Cough: (26) %
  Diarrhea: (32) %
  Dyspnea: (18) %
  Fatigue: (30) %
  Headache: (27) %
  Muscle spasms: (20) %
  Nausea: (27) %
  Peripheral edema: (20) %
  Vomiting: (15) %
  Hyperglycemia: (5) %
  Hypertension: (6) %
  Pneumonia: (6) %
  ALT increased: (11) %
  AST increased: (12) %
  Bilirubin conjugated increased: 0%
  Blood alkaline phosphatase increased: (9) %
  GGT increased: (15) %
  Hypoalbuminemia: (3) %
  LFT increased: 0%
  Transaminases increased: (2) %
200 mg twice daily, n=66, mITT
  FFS at 6 mo: 76%
  ORR (best, any time): (77) %
  PR, within 6 mo of treatment: (71) %
  PR, within 12 mo of treatment: (73) %
  Clinically significant improvement from baseline (LSS), Overall: 62%
Total (N = 132)
  Cough: (28) %
  Diarrhea: (33) %
  Dyspnea: (25) %
  Fatigue: (38) %
  Headache: (24) %
  Muscle spasms: (20) %
  Nausea: (31) %
  Peripheral edema: (23) %
  Vomiting: (21) %
  Hyperglycemia: (5) %
  Hypertension: (6) %
  Pneumonia: (8) %
  ALT increased: (8) %
  AST increased: (10) %
  Bilirubin conjugated increased: (1) %
  Blood alkaline phosphatase increased: (8) %
  GGT increased: (12) %
  Hypoalbuminemia: (3) %
  LFT increased: (1) %
  Transaminases increased: (2) %
  Any AE: (99) %
  Drug-related AEs: (67) %
  Drug-related SAEs: (5) %
  Grade ≥3 AEs: (54) %
  Liver-related AEs: (24) %
  SAEs: (38) %
Total
  Clinically significant improvement from baseline (LSS), Nonresponder: (31) %
  Clinically significant improvement from baseline (LSS), Responder: (70) %
[3]
  CR, Esophagus: (45) %
  CR, Eyes: (14) %
  CR, Joints and fascia: (20) %
  CR, Liver: (31) %
  CR, Lower GI: (62) %
  CR, Lungs: (13) %
  CR, Mouth: (44) %
  CR, Skin: (16) %
  CR, Upper GI: (48) %
  ORR, Esophagus: (45) %
  ORR, Eyes: (42) %
  ORR, Joints and fascia: (71) %
  ORR, Liver: (39) %
  ORR, Lower GI: (69) %
  ORR, Lungs: (26) %
  ORR, Mouth: (56) %
  ORR, Skin: (37) %
  ORR, Upper GI: (52) %
  PR, Esophagus: 0%
  PR, Eyes: (28) %
  PR, Joints and fascia: (51) %
  PR, Liver: (8) %
  PR, Lower GI: (8) %
  PR, Lungs: (13) %
  PR, Mouth: (11) %
  PR, Skin: (21) %
  PR, Upper GI: (4) %
Total (N = 132), six during LTFU
  Deaths: (11) %
Total, N=132, mITT
  CR, within 6 mo of treatment: (2) %
  CR, within 12 mo of treatment: (5) %
  FFS at 6 mo: 75%
  FFS at 12 mo: 56%
  Mean change in CS dose from baseline, Overall: −45%
  Median CS reduction from baseline to greatest reduction: 50%
  ORR (best, any time): (76) %
  ORR for responses occurring within 6 mo of treatment: (72) %
  ORR for responses occurring within 12 mo of treatment: (75) %
  PR, within 6 mo of treatment: (70) %
  PR, within 12 mo of treatment: (71) %
  Proportion with CS reduction: 65%
  Clinically significant improvement from baseline (LSS), Overall: (61) %
[4]
  CS discontinuation: 21) %
  Proportion with CS reduction: (65) %
200 mg daily, n=66, mITT, listed as Belumosudil
  Clinically significant improvement from baseline (LSS), Overall: (59) %
200 mg twice daily, n=66, mITT, listed as Belumosudil
  Clinically significant improvement from baseline (LSS), Overall: (62) %
In vivo
  Grade ≥3 anemia: 3%
  Grade ≥3 cytopenias: < 4%
  Grade ≥3 neutropenia: 2%
  Grade ≥3 thrombocytopenia: 2%
  SAE: pneumonia: 7%
  discontinued because of overall AEs: 21%
  discontinued because of possible drug-related AEs: 12%
  discontinued because of progression of cGVHD: 16%
  discontinued because of progression of underlying malignant disease: 4%
  grade 3 or 4 AE: hyperglycemia: 5%
  grade 3 or 4 AE: hypertension: 6%
  grade 3 or 4 AE: pneumonia: 8%
  liver-related AE: increased GGT: 12%
  subjects who discontinued calcineurin inhibitor (CNI) therapy: 22%
  subjects who received an RDI >95%: Eighty-one
  subjects with >1 SAE: Thirty eight
  subjects with increased liver function tests (LFTs): Twenty-four
mITT, pooled
  organ-specific best ORR, esophagus: 45%
  organ-specific best ORR, eyes: 42%
  organ-specific best ORR, joints/fascia: 71%
  organ-specific best ORR, liver: 39%
  organ-specific best ORR, lower GI tract: 69%
  organ-specific best ORR, lungs: 26%
  organ-specific best ORR, mouth: 55%
  organ-specific best ORR, skin: 37%
  organ-specific best ORR, upper gastrointestinal (GI) tract: 52%
overall
  nonrelapse mortality (NRM) rate: 7%
pooled
  share of responses seen after 6 to 12 months of treatment: 9%
Pooled across arms, mITT
  ORRs observed in all subgroups: 61-85%
